Earlier results as cited in US20100145053A1, “MODIFIED RELEASE CLOPIDOGREL FORMULATION” (CADILA HEALTHCARE LIMITED, priority 2006, published 2010).
Like-named read-outs stand apart in the source and are kept apart here.

Assays:
[1] = in vivo
[2] = test system: ADP-induced platelet aggregation; details: in vivo
[3] = test system: platelet aggregation to ADP; details: 4 hours after 600-mg load
[4] = test system: platelet aggregation in response to ADP; details: 300-mg loading dose followed by 75 mg daily
[5] = test system: phosphodiesterase

Row | Time of peak concentration of Clopidogrel and its active metabolite post dosing [1] [h] | Share of Clopidogrel available to undergo hepatic conversion to the active metabolite [1] [%] | Share of Clopidogrel inactivated by esterases in the blood after absorption [1] [%] | Inhibition of phosphodiesterase activity [5] | Compound | Time for platelet aggregation and bleeding time to return to baseline after treatment is discontinued [2] | Nonresponders (<10% reduction in platelet aggregation) ([3]; 5 μmol/L ADP) [%] | Semiresponders (10% to 29% reduction in platelet aggregation) ([3]; 5 μmol/L ADP) [%] | Nonresponders (<10% reduction in platelet aggregation) ([3]; 20 μmol/ADP) [%] | Semiresponders (10% to 29% reduction in platelet aggregation) ([3]; 20 μmol/ADP) [%] | Patients with Clopidogrel resistance (<10% reduction in aggregation in response to 5 μmol/L ADP) ([4]; at 2 hours) | Patients with Clopidogrel resistance (<10% reduction in aggregation in response to 5 μmol/L ADP) ([4]; at 24 hours) | Patients with Clopidogrel resistance (<10% reduction in aggregation in response to 5 μmol/L ADP) ([4]; at 5 days) | Patients with Clopidogrel resistance (<10% reduction in aggregation in response to 5 μmol/L ADP) ([4]; at 30 days)
1 | 1 to 3 | – | – | – | COC(=O)[C@H](c1ccccc1Cl)N1CCc2sccc2C1 [Clopidogrel bisulfate] | – | – | – | – | – | – | – | – | –
2 | – | 15 | 85 | does not inhibit | COC(=O)[C@H](c1ccccc1Cl)N1CCc2sccc2C1 [Clopidogrel, Methyl (+)-(S)-alpha-(o-chlorophenyl)-6,7-dihydrothieno(3,2-c)pyridine-5(4H)-acetate] | about 5 days | 5 | 9 | 11 | 26 | 63 % of patients | 31 % of patients | 31 % of patients | 15 % of patients
